Values of other authors in publication PMC3124134 (Bioorganic & medicinal chemistry, 2010).

Experiments:
Sc ODCase = settings: S. cerevisiae ODCase; in words
ODCase = settings: read-out: inhibition constant (Ki); competitive inhibition of ODCase

Row | Structure (SMILES) | inhibition constants (Sc ODCase) | Ki (ODCase)
1 | NC(=O)c1[nH]nc([C@@H]2O[C@H](COP(=O)(O)O)[C@@H](O)[C@H]2O)c1O [compound 8, 4-Hydroxy-5-(5-O-monophosphoryl-β-D-ribofuranos-1-yl)-1H-pyrazole-3-carboxamide] | low nanomolar range | 
2 | COC(=O)C1=C(C)NC(C)=C(C(=O)OC)C1c1ccccc1[N+](=O)[O-] [nifedipine] |  | 105 µM
